# Assay results taken from patent publication US12384797B2, “Thioeno[3,2-b] pyridin-7-amine compounds for treating familial dysautonomia” (PTC THERAPEUTICS, INC., priority 2019, dated 2025).
# Test system: Elongator complex protein 1 (ELP1, also referred to as IKBKAP)
# Test: IKBKAP-HTRF assay (IKBKAP protein in lysates of FD patient-derived fibroblasts)
# Assay type: cell-based, human
# Details: 48 hours incubation, 7-point concentration curve
# Procedure, shortened: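 FD patient-derived fibroblasts (10,000/well) were treated 48 h at 37 °C with a 7-point, 3.16-fold compound series in triplicate, then lysed. IKBKAP was read by sandwich HTRF (donor/acceptor anti-IKAP antibodies, overnight at 4 °C, 665/620 nm). MFI is ΔF over vehicle ΔF; EC2x is the concentration giving twice the vehicle IKBKAP level.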
Compound,EC2x for IKBKAP protein expression (concentration producing two times the amount of IKBKAP protein vs DMSO vehicle control),MFI (maximum fold increase in IKBKAP protein abundance relative to the vehicle control)
"C#C[C@H](N)Cc1sc2c(NCc3ccco3)cc(Cl)nc2c1C [Compound 123, 2-[(2R)-2-aminobut-3-yn-1-yl]-3-methyl-5-chloro-N-[(furan-2-yl)methyl]thieno[3,2-b]pyridin-7-amine]",***** (≤0.005 μM is indicated by five stars (*****)),***** (>4.9 is indicated by five stars (*****))
"N#CC[C@H](N)Cc1sc2c(NCc3ccco3)cc(Cl)nc2c1Br [Compound 103, (3S)-3-amino-4-(3-bromo-5-chloro-7-{[(furan-2-yl)methyl]amino}thieno[3,2-b]pyridin-2-yl)butanenitrile]",**** (between >0.005 μM and ≤0.02 μM is indicated by four stars (****)),**** (between >3.9 and ≤4.9 is indicated by four stars (****))
"C[C@H](N)Cc1sc2c(NCc3ccco3)cc(Cl)nc2c1Br [Compound 37, 2-[(2S)-2-aminopropyl]-3-bromo-5-chloro-N-[(furan-2-yl)methyl]thieno[3,2-b]pyridin-7-amine]",***** (≤0.005 μM is indicated by five stars (*****)),***** (>4.9 is indicated by five stars (*****))
"2-[(2S)-2-aminobutyl]-5-chloro-3-cyclopropyl-N-[(1,3-thiazol-2-yl)methyl]thieno[3,2-b]pyridin-7-amine [Compound 86]",*** (between >0.02 μM and ≤0.5 μM is indicated by three stars (***)),**** (between >3.9 and ≤4.9 is indicated by four stars (****))
"N[C@H](Cc1sc2c(NCc3ccco3)cc(Cl)nc2c1Cl)C(=O)Nc1ccccc1F [Compound 124, 3-(3,5-dichloro-7-{[(furan-2-yl)methyl]amino}thieno[3,2-b]pyridin-2-yl)-N-(2-fluorophenyl)-D-alaninamide]",**** (between >0.005 μM and ≤0.02 μM is indicated by four stars (****)),***** (>4.9 is indicated by five stars (*****))
"C[C@H](N)C(O)c1sc2c(NCc3cccs3)cc(Cl)nc2c1Br (stereo partly drawn) [Compound 155, (2S)-2-amino-1-(3-bromo-5-chloro-7-{[(thiophen-2-yl)methyl]amino}thieno[3,2-b]pyridin-2-yl)propan-1-ol]",* (An EC2x>1 μM is indicated by one star (*)),* (An MFI≤1.9 is indicated by one star (*))
"C[C@H](N)Cc1sc2c(NCc3cccs3)cc(C#N)nc2c1Cl [Compound 112, 2-[(2S)-2-aminopropyl]-3-chloro-7-{[(thiophen-2-yl)methyl]amino}thieno[3,2-b]pyridine-5-carbonitrile]",***** (≤0.005 μM is indicated by five stars (*****)),***** (>4.9 is indicated by five stars (*****))
"N#Cc1csc2c(NCc3ccco3)cc(Cl)nc12 [Compound 14, 5-chloro-7-{[(furan-2-yl)methyl]amino}thieno[3,2-b]pyridine-3-carbonitrile]",*** (between >0.02 μM and ≤0.5 μM is indicated by three stars (***)),***** (>4.9 is indicated by five stars (*****))
"CSC[C@H](N)Cc1sc2c(NCc3ccco3)cc(Cl)nc2c1C [Compound 104, 2-[(2R)-2-amino-3-(methylsulfanyl)propyl]-5-chloro-N-[(furan-2-yl)methyl]-3-methylthieno[3,2-b]pyridin-7-amine]",***** (≤0.005 μM is indicated by five stars (*****)),***** (>4.9 is indicated by five stars (*****))
"C[C@H](N)C(O)c1sc2c(NCc3cccs3)cc(Cl)nc2c1Cl (stereo partly drawn) [Compound 127, (2S)-2-amino-1-(3,5-dichloro-7-{[(thiophen-2-yl)methyl]amino}thieno[3,2-b]pyridin-2-yl)propan-1-ol]",**** (between >0.005 μM and ≤0.02 μM is indicated by four stars (****)),***** (>4.9 is indicated by five stars (*****))
"Cc1c(C[C@@H](N)C(=O)O)sc2c(NCc3ccco3)cc(Cl)nc12 [Compound 115, 3-(5-chloro-7-{[(furan-2-yl)methyl]amino}-3-methylthieno[3,2-b]pyridin-2-yl)-D-alanine]",***** (≤0.005 μM is indicated by five stars (*****)),***** (>4.9 is indicated by five stars (*****))
"2-[(2R)-2-amino-3-fluoropropyl]-5-chloro-3-methyl-N-[(1,3-thiazol-2-yl)methyl]thieno[3,2-b]pyridin-7-amine [Compound 69]",***** (≤0.005 μM is indicated by five stars (*****)),***** (>4.9 is indicated by five stars (*****))
"Cc1c(C[C@@H](N)CC#N)sc2c(NCc3cccs3)cc(Cl)nc12 [Compound 105, (3S)-3-amino-4-(5-chloro-3-methyl-7-{[(thiophen-2-yl)methyl]amino}thieno[3,2-b]pyridin-2-yl)butanenitrile]",***** (≤0.005 μM is indicated by five stars (*****)),***** (>4.9 is indicated by five stars (*****))
"Cc1c([C@H](N)C(C)C)sc2c(NCc3ccco3)cc(Cl)nc12 [Compound 31, 2-[(1R)-1-amino-2-methylpropyl]-5-chloro-N-[(furan-2-yl)methyl]-3-methylthieno[3,2-b]pyridin-7-amine]",* (An EC2x>1 μM is indicated by one star (*)),* (An MFI≤1.9 is indicated by one star (*))
"N#Cc1cc(NCc2cccs2)c2scc(C#N)c2n1 [Compound 12, 7-{[(thiophen-2-yl)methyl]amino}thieno[3,2-b]pyridine-3,5-dicarbonitrile]",*** (between >0.02 μM and ≤0.5 μM is indicated by three stars (***)),** (between >1.9 and ≤2.9 is indicated by two stars (**))
"CS(=O)(=O)C[C@H](N)Cc1sc2c(NCc3ccco3)cc(Cl)nc2c1Br [Compound 117, 2-[(2R)-2-amino-3-(methanesulfonyl)propyl]-3-bromo-5-chloro-N-[(furan-2-yl)methyl]thieno[3,2-b]pyridin-7-amine]",**** (between >0.005 μM and ≤0.02 μM is indicated by four stars (****)),***** (>4.9 is indicated by five stars (*****))
"C[C@H](N)C(O)c1sc2c(NCc3ccco3)cc(Cl)nc2c1Br (stereo partly drawn) [Compound 153, (2S)-2-amino-1-(3-bromo-5-chloro-7-{[(furan-2-yl)methyl]amino}thieno[3,2-b]pyridin-2-yl)propan-1-ol]",*** (between >0.02 μM and ≤0.5 μM is indicated by three stars (***)),** (between >1.9 and ≤2.9 is indicated by two stars (**))
"Cc1c(C[C@@H](N)CC(C)C)sc2c(NCc3cccs3)cc(Cl)nc12 [Compound 61, 2-[(2S)-2-amino-4-methylpentyl]-5-chloro-3-methyl-N-[(thiophen-2-yl)methyl]thieno[3,2-b]pyridin-7-amine]",***** (≤0.005 μM is indicated by five stars (*****)),***** (>4.9 is indicated by five stars (*****))
"C[C@H](N)Cc1sc2c(NCc3cccs3)cc(Cl)nc2c1Br [Compound 53, 2-[(2S)-2-aminopropyl]-3-bromo-5-chloro-N-[(thiophen-2-yl)methyl]thieno[3,2-b]pyridin-7-amine]",***** (≤0.005 μM is indicated by five stars (*****)),***** (>4.9 is indicated by five stars (*****))
"2-[(2S)-2-amino-4-methylpentyl]-5-chloro-3-cyclopropyl-N-[(1,3-thiazol-2-yl)methyl]thieno[3,2-b]pyridin-7-amine [Compound 80]",*** (between >0.02 μM and ≤0.5 μM is indicated by three stars (***)),*** (between >2.9 and ≤3.9 is indicated by three stars (***))
"FC(F)Oc1csc2c(NCc3cccs3)cc(Cl)nc12 [Compound 149, 5-chloro-3-(difluoromethoxy)-N-[(thiophen-2-yl)methyl]thieno[3,2-b]pyridin-7-amine]",*** (between >0.02 μM and ≤0.5 μM is indicated by three stars (***)),**** (between >3.9 and ≤4.9 is indicated by four stars (****))
"Cc1c(C[C@H](C)N)sc2c(NCc3cccs3)cc(C#N)nc12 [Compound 54, 2-[(2S)-2-aminopropyl]-3-methyl-7-{[(thiophen-2-yl)methyl]amino}thieno[3,2-b]pyridine-5-carbonitrile]",***** (≤0.005 μM is indicated by five stars (*****)),***** (>4.9 is indicated by five stars (*****))
